We go through ten compounds from patent publication US20240092799A1, “MNK INHIBITORS” (Hepagene Therapeutics (HK) Limited, priority 2020, published 2024).

One assay addresses MNK2 (Homo sapiens (Human), UniProt Q9HBH9). Put plainly: MNK Biochemical Enzymatic Assay (ADP-Glo), MNK2 binding assay. In outline:
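Human MNK1 or MNK2 was preincubated with a 10-point, 1:3 serial dilution of compound for 15 min at 25 °C. Substrate was then added and the reaction ran 60 min at 25 °C. ADP formed was read by ADP-Glo luminescence, and IC50 came from non-linear regression.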
A general note: ADP-Glo turns the ADP formed in a reaction into a luminescent signal.

A further assay concerns TMD-8 cell p-IF4E. Kind of assay: p-eIF4E Signaling Cellular Assay (CisBio HTRF) in TMD-8 cells. Type of assay: cell-based. As to conditions: Homo sapiens, TMD8, 40 min, 40 min treatment. In outline: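 TMD-8 cells (20 k/well, exponential phase, RPMI 1640 + 10% FBS) treated with compound for 40 min at 37 °C, then lysed for 30 min and incubated overnight at RT with HTRF antibodies. 665/620 nm ratio converted to % inhibition vs controls; IC50 from variable-slope nonlinear fit.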
For orientation: TR-FRET usually uses a lanthanide donor and a delayed reading to cut background.

As usually defined, the IC50 is the concentration that inhibits the measured activity by half. The low end stands for higher potency, the high end for lower potency.

SMILES strings stand for the structures.

MNK2, sequence (Q9HBH9 whole entry): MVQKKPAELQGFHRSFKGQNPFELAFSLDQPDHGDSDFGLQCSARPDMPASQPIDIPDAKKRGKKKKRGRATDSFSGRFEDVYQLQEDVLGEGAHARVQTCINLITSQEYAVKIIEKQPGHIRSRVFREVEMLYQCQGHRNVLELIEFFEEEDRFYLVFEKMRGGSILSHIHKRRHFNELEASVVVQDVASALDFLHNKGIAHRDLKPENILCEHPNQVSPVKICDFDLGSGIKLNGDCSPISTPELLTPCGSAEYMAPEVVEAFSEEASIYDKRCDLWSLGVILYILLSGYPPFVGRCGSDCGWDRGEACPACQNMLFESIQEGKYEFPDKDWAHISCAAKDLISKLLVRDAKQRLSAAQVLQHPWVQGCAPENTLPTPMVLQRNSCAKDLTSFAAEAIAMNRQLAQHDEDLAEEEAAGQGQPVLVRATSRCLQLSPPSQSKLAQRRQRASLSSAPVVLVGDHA

Turning to `O=C1NC2(CCCCC2)c2cc(Nc3cc(NC(=O)C4CCCC4)ncn3)sc21` [Compound XX-D, N-(6-((6′-Oxo-5′,6′-dihydrospiro[cyclohexane-1,4′-thieno[2,3-c]pyrrol]-2′-yl)amino)pyrimidin-4-yl)cyclopentanecarboxamide], the IC50 on MNK2 was in the range of 0.1 to 10 nM; in the assay with TMD-8 cell p-IF4E, 100 to 1000 nM.
The corresponding values for `Cc1cc(Nc2cc(Nc3ccccc3)ncn2)[n+]([O-])c2c1C(=O)NC21CCCCC1` [Compound XXIX-AH, 4′-methyl-5′-oxo-2′-((6-(phenylamino)pyrimidin-4-yl)amino)-5′,6′-dihydrospiro[cyclohexane-1,7′-pyrrolo[3,4-b]pyridine] 1′-oxide] are 0.1 to 10 nM and 0.1 to 10 nM.
In the same order, the values of `O=C1NC2(CCCCC2)c2nc(Nc3cc(NC(=O)C4CCCC4)ncn3)sc21` [Compound XXVIII-C, N-(6-((6′-oxo-5′,6′-dihydrospiro[cyclohexane-1,4′-pyrrolo[3,4-d]thiazol]-2′-yl)amino)pyrimidin-4-yl)cyclopentanecarboxamide] are 0.1 to 10 nM and 10 to 100 nM.
In the same order, the values of `O=C1NC2(CCCCC2)c2cc(Nc3cc(N[C@H]4CCCOC4)ncn3)sc21` [Compound XXIV-A, (S)-2′-((6-((tetrahydro-2H-pyran-3-yl)amino)pyrimidin-4-yl)amino)spiro[cyclohexane-1,4′-thieno[2,3-c]pyrrol]-6′(5′H)-one] are 0.1 to 10 nM and 100 to 1000 nM.
Take `CN(C)[C@H]1CCN(C(=O)C2CCc3c(sc4ncnc(Nc5cc6c(s5)C(=O)NC65CCCCC5)c34)C2)C1` (stereo partly drawn) [Compound XXV, 2′-((7-((S)-3-(Dimethylamino)pyrrolidine-1-carbonyl)-5,6,7,8-tetrahydrobenzo[4,5]thieno[2,3-d]pyrimidin-4-yl)amino)spiro[cyclohexane-1,4′-thieno[2,3-c]pyrrol]-6′(5′H)-one]: the IC50 on MNK2 was 10 to 100 nM; in the assay on TMD-8 cell p-IF4E, 100 to 1000 nM.
Regarding `Cc1cc(Nc2cc(N[C@H]3CCOC3)ncn2)[n+]([O-])c2c1C(=O)NC21CCCCC1` [Compound XXIX-A, (S)-4′-methyl-5′-oxo-2′-((6-((tetrahydrofuran-3-yl)amino)pyrimidin-4-yl)amino)-5′,6′-dihydrospiro[cyclohexane-1,7′-pyrrolo[3,4-b]pyridine] 1′-oxide], the IC50 on MNK2 and in the assay on TMD-8 cell p-IF4E was 0.1 to 10 nM each time.
As for `Cc1cc(Nc2cc(N)ncn2)[n+]([O-])c2c1C(=O)NC21CCCCC1` [Compound XXIX, 2′-((6-Aminopyrimidin-4-yl)amino)-4′-methyl-5′-oxo-5′,6′-dihydrospiro [cyclohexane-1,7′-pyrrolo[3,4-b]pyridine] 1′-oxide], the results for the IC50 on MNK2 and in the assay with TMD-8 cell p-IF4E were 0.1 to 10 nM and 10 to 100 nM, respectively.
The corresponding values for `O=C1NC2(CCCCC2)c2nc(Nc3cc(N[C@H]4C[C@@H](O)C4)ncn3)sc21` [Compound XXVIII-O, Cis-2′-((6-(((1s,3s)-3-hydroxycyclobutyl)amino)pyrimidin-4-yl)amino)spiro[cyclohexane-1,4′-pyrrolo[3,4-d]thiazol]-6′(5′H)-one] are 0.1 to 10 nM and 100 to 1000 nM.
The corresponding values for `CC(=O)N(C)c1cccc(Nc2cc(Nc3cc(C)c4c([n+]3[O-])C3(CCCCC3)NC4=O)ncn2)n1` [Compound XXIX-AA, 4′-methyl-2′-((6-((6-(N-methylacetamido)pyridin-2-yl)amino)pyrimidin-4-yl)amino)-5′-oxo-5′,6′-dihydrospiro[cyclohexane-1,7′-pyrrolo[3,4-b]pyridine] 1′-oxide] are 0.1 to 10 nM and 0.1 to 10 nM.
The corresponding values for `CCN1CCN(c2ccc(Nc3cc(Nc4cc(C)c5c([n+]4[O-])C4(CCCCC4)NC5=O)ncn3)nc2)CC1` [Compound XXIX-AAO, 2′-[(6-{[5-(4-ethylpiperazin-1-yl)pyridin-2-yl]amino}pyrimidin-4-yl)amino]-4′-methyl-5′-oxo-6′H-spiro[cyclohexane-1,7′-pyrrolo[3,4-b]pyridin]-1′-ium-1′-olate] are 0.1 to 10 nM and 0.1 to 10 nM.
